pEC50, pIC50: −log10 of the molar value. Where “and” joins values, the source holds several entries; their conditions need not be identical. Equal entries are not always repeated. Where two headings read alike, the source gives them in different places.
What was measured:
P. falciparum Dd2 [1] = assay: Compound dose-response assay (72 h, SYBR Green I), Dd2; type: cell-based, Plasmodium falciparum
Protocol: (§1) P. falciparum parasites were cultured at 3% hematocrit in RPMI 1640 (Gibco) medium consisting of 0.5% Albumax II (Gibco), 25 mM HEPES (Sigma), 0.21% sodium bicarbonate, 1x GlutaMAX (Gibco), 25 μg/mL gentamicin (Gibco). A tri-gas mixture (1% O2, 3% CO2, and 96% N2) was used for parasite cultures. Parasites were synchronized using a sorbitol and Percoll density gradient method. The following parasite strains were used: 3D7, Dd2 (MR4, MRA-156, T. Wellems), GB4 (MR4, MRA-925, T. Wellems), UG659 (P. Rosenthal), Tanzania (MR4, MRA-1169, Michal Fried), Cam/PH0212C (R. Fairhurst), and Cam3.II/ PH0306-C (R. Fairhurst). Transfection was performed using ring-stage parasites (5–8% parasitemia) using a Gene Pulser Xcell (Biorad) electroporator.
(§2) Compound dose-response assays were performed in flat-bottom 96-well plates. Tightly synchronized ring-stage parasites were diluted to 1% parasitemia at 2% hematocrit, and incubated with a two-fold serial dilution of compounds in complete medium. Untreated parasites or uninfected RBCs were included in the assay plate as controls. Parasite growth was assessed after 72 h by lysing parasites using 2× lysis buffer consisting of 10 mM Tris-HCl, 5 mM EDTA, 0.1% w/v saponin, and 1% v/v Triton X-100, supplemented with 2× SYBR Green I (Molecular Probes). The fluorescence was measured using a FluorStar Omega v5.11 plate reader. IC50 analysis was performed using GraphPad Prism v9, and statistical significance was determined by a two-sided Mann-Whitney U test. All assays were performed in technical duplicate with at least three biological replicates, as noted in the figure legends.

[2] = tested on: P. falciparum PfQRP1 mutants (G1612V, D1863Y, D1829*, D1829A); assay: Dose-response assay on CRISPR-edited PfQRP1 mutant lines; type: cell-based, Plasmodium falciparum
Protocol: To generate the PfQRP1 hydrolase mutants (D1829stop and D1829A), the pDC2-Cas9-gRNA-donor plasmid was transfected into the P. falciparum Dd2 line. Donor plasmid (50 µg) containing the sgRNA ([…]) and a pfqrp1 homology region of 672 bp, centred on the D1829 residue, was used for transfection. Transfectants were selected using 5 nM WR99210 (a potent inhibitor of P. falciparum dihydrofolate reductase (DHFR) provided by Jacobus Pharmaceuticals) for 8 days, followed by culturing without drug until parasites were observed. Parasite clones were obtained using limiting dilution cloning. Confirmation of gene editing was performed with allele-specific PCR (forward primer […] and reverse primer […]) and Sanger sequencing using an internal primer ([…]).
as §2

P. falciparum 3D7 = assay: Compound dose-response assay (72 h, SYBR Green I), 3D7; type: cell-based, Plasmodium falciparum
Protocol: as §1, §2

HepG2 cells = tested on: HepG2 cells; design: method as in Padalino et al. [13]; conditions: ref Padalino et al. [13], cited from earlier work
[3] = tested on: P. falciparum strains Cam/PH0212C, Cam3.II/PH0306-C, UG659, GB4, Tanzania; assay: Dose-response assay against panel of geographically distinct strains; type: cell-based, Plasmodium falciparum; conditions: Cambodian isolates
Protocol: as §1, §2

[4] = tested on: Dd2-Polδ clones C22-1.1 and C22-2.1; assay: Dose-response assay on compound 22-selected clones (cross-resistance); type: cell-based, Plasmodium falciparum
Protocol: Resistance selections were performed using a mutator parasite line Dd2-Polδ with an elevated mutation rate. Three independent flasks with either 1×10^8 or 1×10^9 parasites each were treated with 5×IC50, and parasite death was monitored by microscopy (Giemsa staining). […] After eight days, compounds were removed from the media and the media was changed on alternate days. […] For recrudescent cultures, compound susceptibility was determined by dose-response assays. Parasite clones were obtained by limiting dilution and harvested for genomic DNA extraction, followed by whole-genome sequencing.
as §2

S. mansoni schistosomula = tested on: S. mansoni schistosomula; design: method as in Padalino et al. [13]; conditions: ref Padalino et al. [13], cited from earlier work
[5] = tested on: P. falciparum ring, trophozoite and schizont stages; assay: Stage specificity assay; type: cell-based, Plasmodium falciparum
Protocol: Stage-specific drug assays were performed following a protocol modified from Murithi et al.. In this assay, parasites were tightly synchronized to the ring stage with repeated 5% sorbitol treatments. On the assay day, schizonts were purified using a 63% Percoll gradient and allowed to […]. […] Parasites were then plated in 96-well plates and exposed to different drug concentrations at various stages: […] Drug treatment was removed through three rounds of washes. Plates were lysed 62 h after drug washout, and parasite growth was assessed similarly to the standard 72 h assay that used constant drug exposure.

P. falciparum Dd2 [6] = assay: Rate of killing (CFDA-SE labelled RBC reinvasion); type: cell-based, Plasmodium falciparum; conditions: Dd2, 10×IC50, 24 h or 48 h
Protocol: The rate of killing was evaluated as previously described in Linares et al.. […] After treatment, the compound was removed, and the culture was diluted (1/3) using fresh RBCs (2% haematocrit) pre-labelled with CFDA-SE (carboxylfluorescein diacetate succinimidyl ester, Life Technologies). Following a 48 h incubation under standard conditions, the ability of treated parasites to infect fresh labelled RBCs was measured using a Cytoflex flow cytometer by quantifying double-positive RBCs after labelling the parasites with MitoTracker Deep Red. Parasite viability was determined as the percentage of infected CFDA-SE-labelled RBCs in drug-treated samples at 24 and 48 h, compared to equivalent untreated controls. Standard compounds dihydroartemisinin, chloroquine, and atovaquone were used as benchmarks for comparing the killing rate of the test compounds.

S. mansoni adult worms = tested on: S. mansoni adult worms; design: method as in PMID 24416463; conditions: 400 compounds of the Malaria Box; cited from earlier work
[7] = tested on: 3D7 parasites (hemoglobin, 'free' heme, hemozoin); assay: Cellular heme fractionation assay; type: cell-based, Plasmodium falciparum; conditions: 3D7, 0.5 – 2.5× IC50, 30 h
Excerpt: Cellular heme fractionation to measure the amounts of different heme species was thereafter conducted as previously described. […] Pellets were then resuspended in 1× PBS (pH 7.5) and an aliquot of the trophozoite suspension used to quantify the total number of trophozoites isolated using flow cytometry. Contents of the remaining trophozoite pellet were then released by hypotonic lysis and sonication. […] The UV−visible spectrum of each heme fraction as an Fe(III)heme−pyridine complex was measured using a multi-well plate reader (Spectramax 340PC; Molecular Devices). The total amount of each heme species was quantified using a heme standard curve whereby the mass of each heme-Fe species per trophozoite (fg/cell) was calculated by dividing the total amount of each heme species by the corresponding number of parasites in that fraction as determined by flow cytometry. Statistical comparisons and analyses for trends were made on GraphPad Prism version 10 using Students’ t-test with Welch correction. The total amount of heme obtained from each fraction was quantified using a standard curve prepared from a 100 μg/mL heme standard solution of hematin (porcine) in 0.3 M NaOH. Serial dilutions of this standard were carried out in a 96-well plate with 100 μL 0.3 M NaOH as a blank. […] The visible spectra of heme as Fe(III)heme-pyridine complex were recorded in a multi-well plate reader. The amount of heme Fe per cell was calculated by dividing the total heme Fe in each fraction by the number of cells determined in each fraction.

[8] = tested on: P. berghei liver stage parasites; design: method as in PMID 22096101; conditions: cited from earlier work
β-hematin formation = assay: Detergent-based β-hematin inhibition assay; type: biochemical; conditions: cell-free, NP40 detergent, pH 4.8; read-out: βH Inhibition IC50, individual biological replicate
Protocol: From this stock 40 μL of each was delivered to wells in the final column (column 12) of a 96-well plate together with distilled water (120 μL) and NP40 detergent (305.5 mM, 40 μL). […] A serial dilution of each compound (100 μL) from column 12 to column 2 was carried out. Column 1 served as a blank with 0 mM sample. A 25 mM hematin stock solution was prepared by sonicating hemin in DMSO for one minute and then suspending 179 μL of this in a 1 M acetate buffer (20 mL, pH 4.8). […] The plate was covered and incubated at 37°C for 5 h. […] Acetone (60 μL) was then added to assist with hematin dispersion. The UV-vis absorbance of the plate wells was read on a SpectraMax […] plate reader.

Row | Compound | Selectivity index HepG2/Dd2 (P. falciparum Dd2 [1]; HepG2 72 h CC50 / Pf Dd2 IC50) | pIC50 (P. falciparum Dd2 [1]; Plasmodium falciparum, DD2, 72 h, 72 h, asexual blood stage) | Effect of D1829 stop / D1829A PfQRP1 mutation on IC50 [2] | Selectivity index HepG2/3D7 (P. falciparum 3D7; HepG2 72 h CC50 / Pf 3D7 IC50) | pIC50 (P. falciparum 3D7; Plasmodium falciparum, 3D7, 72 h, 72 h, asexual blood stage) | CC50 (HepG2 cells; HepG2, 24 h, read-out: 24 h CC50) | CC50 (HepG2 cells; HepG2, 72 h, read-out: 72 h CC50) | Potency against panel of geographically distinct strains [3] | Shift in IC50 in compound 22-selected clones versus parental Dd2-Polδ [4] | pEC50 (S. mansoni schistosomula; 72 h, read-out: 72 h -phenotype EC50) | pEC50 (S. mansoni schistosomula; average of phenotype and motility, read-out: Average EC50) | pEC50 (S. mansoni schistosomula; read-out: Motility EC50) | Drop in potency for a 10 h pulse compared with continuous exposure for 72 h [5] | Stage-specificity ([5]; 10 h pulse at ring, trophozoite or schizont stage) | Rate of parasite killing (P. falciparum Dd2 [6]) | Activity against S. mansoni adult worms (S. mansoni adult worms) | Levels of 'free' heme or hemozoin relative to untreated controls [7] | Undigested hemoglobin levels [7] | Activity against P. berghei liver stage parasites [8] | pIC50 (β-hematin formation)
1 | O=[N+]([O-])c1ccc2nc(Nc3cc(C(F)(F)F)ccc3F)c(Nc3cc(C(F)(F)F)ccc3F)nc2c1 [Compound 33] | 14.1 | 8.15 | not affected | 22.2 | 8.35 | 27.5 µM | 0.1 µM | potencies similar to those recorded for the lab strain Dd2 | unexpectedly not | 6.82 | 6.82 | 6.82 | 3–4 fold | did not demonstrate a strong stage-specificity | rapidly reduced parasitemia | – | – | – | – | –
2 | Brc1ccc(Nc2nc3ccccc3nc2Nc2ccc(Br)cc2)cc1 [MMV007224, 2-N,3-N-bis(4-bromophenyl)quinoxaline-2,3-diamine] | – | – | less potent | – | – | – | – | – | – | – | – | – | – | – | – | among the most active hits | no significant changes | modest concentration-dependent increase | did not show activity | 3.83 and 3.70
3 | O=C(Nc1ccc(Cl)c(Cl)c1)Nc1ccc(Cl)c(Cl)c1 [MMV665852] | – | – | – | – | – | – | – | – | – | – | – | – | – | – | – | most active compounds | – | – | – | –

From publication PMC11809919, “Quinoxaline-based anti-schistosomal compounds have potent anti-plasmodial activity” (PLOS Pathogens, 2025)
